Measured values taken from patent US5466784A, “Monoclonal antibodies to salinomycin and method for detecting the same” (The United States of America as represented by the …, priority 1993, dated 1995).

Legend:
[1] = test system: the 16 anti-salinomycin monoclonal antibodies SAL02-SAL13 and SAL22-SAL25; experiment: Competitive inhibition ELISA, result stated for the antibodies as a group; format: binding, mouse
Description: (§1) The supernatant culture fluid from the cloned hybridomas may also be screened to select for those producing antibodies having a high affinity for salinomycin. Affinity my be measured using a variety of well known techniques, such as ELISA, RIA or equilibrium dialysis using labelled salinomycin. […] In accordance with this embodiment, the antibody containing supernatant is added to a salinomycin coated solid substrate such as the wells of an assay plate, together with a range of concentrations of free salinomycin as a competitor. Following incubation and washing, bound antibody in the wells is determined in the same manner as the db-ELISA. Percent inhibition may be calculated as (1-B/BO)×100 where B is the OD of a well with a competitor and BO is the mean OD of the wells without competitor (control). […] However, for even greater accuracy, the affinity may be alternatively measured at 50% inhibition (IC50).
(§2) For the competitive inhibition ELISA, the wells of a 96-well microtiter plate were coated with 250 ng SAL-BSA and blocked with ovalbumin as previously described. Two hundred μL of a competitor (free salinomycin at 20-100 ng/100 μL) in assay buffer, were added to row 2 of an antigen-coated well. The remaining wells in that row received 100 μL of assay buffer. A 100 μL aliquot of competitor was withdrawn from row 2 and serially diluted across the microtiter plate into wells 3-10. Wells 11 and 12 received no competitor. […] Plates were incubated for 1-h at 37° C. and processed as described above in the db ELISA. Percent inhibition was calculated by the following method: (1-B/B0)×100where B=the OD of a well with a competitor and B0 =mean ODs of the wells without competitor (i.e. wells 11 and 12).
(§3) Antibody Characterization. The 16 monoclonal antibodies were further evaluated for their ability to distinguish between commonly used ionophoric coccidiostats. The competitive inhibition ELISA described supra was repeated with the ionophores salinomycin (SAL), narasin (NAR), lasalocid (LAS) and monensin (MON) as competitors.

[2] = test system: anti-salinomycin monoclonal antibody SAL13 (IgG2a, kappa); experiment: Competitive inhibition ELISA (SAL-BSA coated wells); format: binding, mouse; conditions: mean ± SD, n = 10 assays
Description: as §1, §2, §3

[3] = test system: anti-salinomycin monoclonal antibody SAL08 (IgG2a, kappa); experiment: as above; format: binding, mouse; conditions: mean ± SD, n = 10 assays
Description: as §1, §2, §3

[4] = test system: anti-salinomycin monoclonal antibody SAL10 (IgG2a, kappa); experiment: as above; format: binding, mouse; conditions: for Mean 50% Inhibition Value (IC50) of competitor: mean ± SD, n = 10 assays
Description: as §1, §2, §3

[5] = test system: anti-salinomycin monoclonal antibody SAL09 (IgG2a, kappa); experiment: as above; format: binding, mouse; conditions: mean ± SD, n = 10 assays
Description: as §1, §2, §3

[6] = test system: anti-salinomycin monoclonal antibody SAL03 (IgG2a, kappa); experiment: as above; format: binding, mouse; conditions: mean ± SD, n = 10 assays
Description: as §1, §2, §3

[7] = test system: anti-salinomycin monoclonal antibody SAL11 (IgG2a, kappa); experiment: as above; format: binding, mouse; conditions: mean ± SD, n = 10 assays
Description: as §1, §2, §3

[8] = test system: anti-salinomycin monoclonal antibody SAL25 (IgG2a, kappa); experiment: as above; format: binding, mouse; conditions: mean ± SD, n = 10 assays
Description: as §1, §2, §3

[9] = test system: anti-salinomycin monoclonal antibody SAL04 (IgG2a, kappa); experiment: as above; format: binding, mouse; conditions: mean ± SD, n = 10 assays
Description: as §1, §2, §3

[10] = test system: anti-salinomycin monoclonal antibody SAL24 (IgG2a, kappa); experiment: as above; format: binding, mouse; conditions: mean ± SD, n = 10 assays
Description: as §1, §2, §3

[11] = test system: anti-salinomycin monoclonal antibody SAL02 (IgG2a, kappa; hybridoma ATCC HB 11954); experiment: as above; format: binding, mouse; conditions: mean ± SD, n = 10 assays
Description: as §1, §2, §3

[12] = test system: anti-salinomycin monoclonal antibody SAL06 (IgG2a, kappa); experiment: as above; format: binding, mouse; conditions: mean ± SD, n = 10 assays
Description: as §1, §2, §3

[13] = test system: anti-salinomycin monoclonal antibody SAL07 (IgG2a, kappa); experiment: as above; format: binding, mouse; conditions: mean ± SD, n = 10 assays
Description: as §1, §2, §3

[14] = test system: anti-salinomycin monoclonal antibody SAL12 (IgG2a, kappa); experiment: as above; format: binding, mouse; conditions: mean ± SD, n = 10 assays
Description: as §1, §2, §3

[15] = test system: anti-salinomycin monoclonal antibody SAL23 (IgG2a, kappa); experiment: as above; format: binding, mouse; conditions: mean ± SD, n = 10 assays
Description: as §1, §2, §3

[16] = test system: anti-salinomycin monoclonal antibody SAL05 (IgG2a, kappa); experiment: as above; format: binding, mouse; conditions: for Mean 50% Inhibition Value (IC50) of competitor: mean ± SD, n = 10 assays
Description: as §1, §2, §3

[17] = test system: anti-salinomycin monoclonal antibody SAL22 (IgG2a, kappa); experiment: as above; format: binding, mouse; conditions: mean ± SD, n = 10 assays
Description: as §1, §2, §3

[18] = test system: monoclonal antibodies to salinomycin of Miller et al. (immunogen linked through succinate at C-20); conditions: prior art antibodies; cited from earlier work
[19] = at or below 100 ng/well (10 ppm), Table I footnote
[20] = at or below 1000 ng/well, all 16 antibodies

SMILES	inhibition of antigen-antibody binding by competitor [1, 19]	inhibition of antigen-antibody binding by competitor [1, 20]	Mean 50% Inhibition Value (IC50) of competitor [2]	Mean 50% Inhibition Value (IC50) of competitor [3]	Mean 50% Inhibition Value (IC50) of competitor [4]	Mean 50% Inhibition Value (IC50) of competitor [5]	Mean 50% Inhibition Value (IC50) of competitor [6]	Mean 50% Inhibition Value (IC50) of competitor [7]	Mean 50% Inhibition Value (IC50) of competitor [8]	Mean 50% Inhibition Value (IC50) of competitor [9]	Mean 50% Inhibition Value (IC50) of competitor [10]	Mean 50% Inhibition Value (IC50) of competitor [11]	Mean 50% Inhibition Value (IC50) of competitor [12]	Mean 50% Inhibition Value (IC50) of competitor [13]	Mean 50% Inhibition Value (IC50) of competitor [14]	Mean 50% Inhibition Value (IC50) of competitor [15]	Mean 50% Inhibition Value (IC50) of competitor [16]	Mean 50% Inhibition Value (IC50) of competitor [17]	further results
CC[C@@H](C(=O)[C@@H](C)[C@@H](O)[C@H](C)CCc1ccc(C)c(O)c1C(=O)O)[C@H]1O[C@](CC)([C@H]2CC[C@](O)(CC)[C@H](C)O2)C[C@@H]1C [lasalocid]	Neither Lasalocid or Monensin inhibited the antigenantibody binding	no inhibition of antigen-antibody binding																	
CC[C@@H](C(=O)[C@@H](C)[C@@H](O)[C@H](C)[C@@H]1O[C@@H]([C@@H](CC)C(=O)O)CC[C@@H]1C)[C@H]1O[C@]2(C=C[C@@H](O)[C@]3(CC[C@@](C)([C@H]4CC[C@](O)(CC)[C@H](C)O4)O3)O2)[C@H](C)C[C@@H]1C [salinomycin]			0.75 ± 0.49 ng/well	0.60 ± 0.30 ng/well	1.76 ± 0.29 ng/well	0.97 ± 0.28 ng/well	0.78 ± 0.72 ng/well	0.57 ± 0.25 ng/well	0.61 ± 0.18 ng/well	0.35 ± 0.17 ng/well	1.15 ± 0.45 ng/well	0.62 ± 0.11 ng/well	0.78 ± 0.62 ng/well	1.44 ± 1.28 ng/well	0.49 ± 0.28 ng/well	0.92 ± 0.15 ng/well	0.33 ± 0.10 ng/well	0.56 ± 0.23 ng/well	concentration that resulted in 20% inhibition (IC20) of control activity ([4]; free salinomycin as competitor): 0.793 ng; concentration that resulted in 50% inhibition IC50 ([4]; free salinomycin as competitor): 1.76 ng; concentration that resulted in 20% inhibition (IC20) of control activity ([16]; free salinomycin as competitor): 0.174 ng; concentration that resulted in 50% inhibition IC50 ([16]; free salinomycin as competitor): 0.33 ng; detection limit (reported) [18]: 50 ng; sensitivity (reported) [18]: 50 ng per well
CC[C@@]1([C@@H]2O[C@@H]([C@H]3O[C@@](O)(CO)[C@H](C)C[C@@H]3C)C[C@@H]2C)CC[C@H]([C@]2(C)CC[C@]3(C[C@H](O)[C@@H](C)[C@@H]([C@@H](C)[C@@H](OC)[C@H](C)C(=O)O)O3)O2)O1 [monensin]	Neither Lasalocid or Monensin inhibited the antigenantibody binding	no inhibition of antigen-antibody binding																	
CC[C@@H](C(=O)O)[C@@H]1O[C@@H]([C@@H](C)[C@H](O)[C@H](C)C(=O)[C@H](CC)[C@H]2O[C@]3(C=C[C@@H](O)[C@]4(CC[C@@](C)([C@H]5CC[C@](O)(CC)[C@H](C)O5)O4)O3)[C@H](C)C[C@@H]2C)[C@@H](C)C[C@@H]1C [narasin]			0.55 ± 0.20 ng/well	1.09 ± 0.15 ng/well	1.18 ± 0.49 ng/well	1.17 ± 0.27 ng/well	0.82 ± 0.58 ng/well	0.69 ± 0.28 ng/well	0.68 ± 0.34 ng/well	0.34 ± 0.15 ng/well	0.98 ± 0.46 ng/well	0.97 ± 0.97 ng/well	0.39 ± 0.15 ng/well	0.93 ± 0.85 ng/well	0.67 ± 0.19 ng/well	0.99 ± 0.25 ng/well	0.52 ± 0.62 ng/well	0.51 ± 0.09 ng/well	
